The target of this test is T1, Cbl-b (Homo sapiens, UniProt Q13191).
T1 construct: Cbl-b-HiBit KI Jurkat Cells were purchased from Promega; host or cells: Cbl-b-HiBiT knock-in Jurkat cells
The test can be described thus: Cbl-b Degradation Method B (Nano-Glo HiBiT lytic detection). Type of test: cell-based. The settings on record: Cbl-b-HiBit KI Jurkat Cells, incubated at least 6-24 hours; for DC50: half maximal degradation, read-out: Cbl-b Degredation Method B IC50; for Dmax: maximum degradation observed, read-out: Cbl-b Degredation Method B Dmax (%). The gist of the method:
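An 11-point, 3-fold compound dilution was applied for 6-24 hours to Jurkat cells carrying HiBiT-tagged endogenous Cbl-b. Lytic HiBiT luminescence quantified residual protein. Outputs are DC50 and Dmax relative to DMSO control.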

Where only a bound is given, the exact number is not on record here.

T1 sequence (Q13191 whole entry): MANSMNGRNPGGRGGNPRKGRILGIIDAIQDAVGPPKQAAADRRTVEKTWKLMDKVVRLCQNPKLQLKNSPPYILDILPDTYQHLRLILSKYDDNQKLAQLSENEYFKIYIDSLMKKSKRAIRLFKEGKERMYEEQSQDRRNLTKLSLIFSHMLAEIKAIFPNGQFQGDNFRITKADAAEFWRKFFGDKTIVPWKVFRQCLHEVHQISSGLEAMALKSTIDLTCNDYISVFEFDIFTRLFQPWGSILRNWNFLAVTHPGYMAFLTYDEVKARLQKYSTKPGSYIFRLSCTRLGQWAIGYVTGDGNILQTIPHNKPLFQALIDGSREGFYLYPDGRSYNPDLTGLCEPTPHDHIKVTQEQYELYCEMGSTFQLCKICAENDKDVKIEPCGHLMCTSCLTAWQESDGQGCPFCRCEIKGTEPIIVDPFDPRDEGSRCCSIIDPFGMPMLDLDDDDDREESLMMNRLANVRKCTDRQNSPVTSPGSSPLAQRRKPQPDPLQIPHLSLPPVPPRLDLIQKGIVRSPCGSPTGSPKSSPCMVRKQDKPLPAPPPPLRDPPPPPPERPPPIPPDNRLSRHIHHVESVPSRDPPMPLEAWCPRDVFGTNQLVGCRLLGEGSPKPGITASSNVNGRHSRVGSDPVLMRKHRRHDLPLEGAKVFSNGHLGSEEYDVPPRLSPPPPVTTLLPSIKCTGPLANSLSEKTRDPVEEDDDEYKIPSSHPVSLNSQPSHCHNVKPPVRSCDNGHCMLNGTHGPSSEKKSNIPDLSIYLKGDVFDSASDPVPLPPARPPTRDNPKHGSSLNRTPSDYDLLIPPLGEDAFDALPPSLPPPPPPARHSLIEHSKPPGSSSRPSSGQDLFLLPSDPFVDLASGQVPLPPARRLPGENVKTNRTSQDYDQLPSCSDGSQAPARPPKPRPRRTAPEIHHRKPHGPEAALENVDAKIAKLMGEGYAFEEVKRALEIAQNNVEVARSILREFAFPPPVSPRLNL

In general, Dmax refers to the greatest extent of degradation seen. As to `CC1c2nc(N3CCC(O[C@H]4CC[C@H](CN5C[C@H]6C[C@@H]5CN6Cc5cc6c(c(C(F)(F)F)c5)CN(c5cccc(C7(Cc8nncn8C)CC7)c5)C6=O)CC4)CC3)ccc2C(=O)N1C1CCC(=O)NC1=O` (stereo partly drawn) [Example 222, 3-[7-methyl-5-oxo-2-(4-{[(1r,4r)-4-{[(1R,4R)-5-{[2-(3-{1-[(4-methyl-4H-1,2,4-triazol-3-yl)methyl]cyclopropyl}phenyl)-3-oxo-7-(trifluoromethyl)-2,3-dihydro-1H-isoindol-5-yl]methyl}-2,5-diazabicyclo[2.2.1]heptan-2-yl]methyl}cyclohexyl]oxy}piperidin-1-yl)-5H,6H,7H-pyrrolo[3,4-b]pyridin-6-yl]piperidine-2,6-dione], the DC50 was less than 5 nM and the maximal degradation (Dmax) lay within 35 to 70%.
With `CC1c2nc(N3CCC(O[C@H]4CC[C@H](CN5C[C@H]6C[C@@H]5CN6Cc5cc6c(c(C(F)(F)F)c5)CN(c5cccc(C7(Cc8nncn8C)CCC7)c5)C6=O)CC4)CC3)ccc2C(=O)N1C1CCC(=O)NC1=O` (stereo partly drawn) [Example 225, 3-[7-methyl-5-oxo-2-(4-{[(1r,4r)-4-{[(1R,4R)-5-{[2-(3-{1-[(4-methyl-4H-1,2,4-triazol-3-yl)methyl]cyclobutyl}phenyl)-3-oxo-7-(trifluoromethyl)-2,3-dihydro-1H-isoindol-5-yl]methyl}-2,5-diazabicyclo[2.2.1]heptan-2-yl]methyl}cyclohexyl]oxy}piperidin-1-yl)-5H,6H,7H-pyrrolo[3,4-b]pyridin-6-yl]piperidine-2,6-dione], the DC50 is less than 5 nM and the Dmax lay in the range of 35 to 70%.
In the case of `Cn1cnnc1C[C@]1(c2cccc(N3Cc4c(cc(CN5CCN(C[C@H]6CC[C@H](OC7CCN(c8ccc9c(ccn9C9CCC(=O)NC9=O)c8)CC7)CC6)CC5)cc4C(F)(F)F)C3=O)c2)C[C@H](C#N)C1` (stereo partly drawn) [Example 226, (1r,3r)-3-[(4-methyl-4H-1,2,4-triazol-3-yl)methyl]-3-(3-{1-oxo-6-[(4-{[(1r,4r)-4-({1-[1-(2,6-dioxopiperidin-3-yl)-1H-indol-5-yl]piperidin-4-yl}oxy)cyclohexyl]methyl}piperazin-1-yl)methyl]-4-(trifluoromethyl)-2,3-dihydro-1H-isoindol-2-yl}phenyl)cyclobutane-1-carbonitrile], the DC50 is less than 5 nM and the Dmax lay within 35 to 70%.
For `Cc1cc(N2CCC(O[C@H]3CC[C@H](CN4CCN(Cc5cc6c(c(C(F)(F)F)c5)CN(c5cccc(C7(Cc8nncn8C)CC7)c5)C6=O)C(C)(C)C4)CC3)CC2)c(F)c2c1C(=O)N(C1CCC(=O)NC1=O)C2` (stereo partly drawn) [Example 227, 3-[4-fluoro-7-methyl-1-oxo-5-(4-{[(1r,4r)-4-[(3,3-dimethyl-4-{[2-(3-{1-[(4-methyl-4H-1,2,4-triazol-3-yl)methyl]cyclopropyl}phenyl)-3-oxo-7-(trifluoromethyl)-2,3-dihydro-1H-isoindol-5-yl]methyl}piperazin-1-yl)methyl]cyclohexyl]oxy}piperidin-1-yl)-2,3-dihydro-1H-isoindol-2-yl]piperidine-2,6-dione] the same measures were less than 5 nM and greater than 70%.
`CC(C)n1c(=O)n(C2CCC(=O)NC2=O)c2ccc(N3CCC(O[C@H]4CC[C@H](CN5CCN(Cc6cc7c(c(C(F)(F)F)c6)CN(c6cccc([C@]8(Cc9nncn9C)C[C@@H](C#N)C8)c6)C7=O)CC5)CC4)CC3)cc21` (stereo partly drawn) [Example 228, (1r,3r)-3-[(4-methyl-4H-1,2,4-triazol-3-yl)methyl]-3-(3-{1-oxo-6-[(4-{[(1r,4r)-4-({1-[1-(2,6-dioxopiperidin-3-yl)-2-oxo-3-(propan-2-yl)-2,3-dihydro-1H-1,3-benzodiazol-5-yl]piperidin-4-yl}oxy)cyclohexyl]methyl}piperazin-1-yl)methyl]-4-(trifluoromethyl)-2,3-dihydro-1H-isoindol-2-yl}phenyl)cyclobutane-1-carbonitrile]: the DC50 is less than 5 nM and the Dmax is greater than 70%.
For `CC(C)n1c(=O)n(C2CCC(=O)NC2=O)c2ccc(N3CCC(O[C@H]4CC[C@H](CN5CCN(Cc6cc7c(c(C(F)(F)F)c6)CN(c6cccc([C@]8(Cc9nncn9C)C[C@@H](C#N)C8)c6)C7=O)C(C)(C)C5)CC4)CC3)cc21` (stereo partly drawn) [Example 229, (1r,3r)-3-(3-{6-[(2,2-dimethyl-4-{[(1r,4r)-4-({1-[1-(2,6-dioxopiperidin-3-yl)-2-oxo-3-(propan-2-yl)-2,3-dihydro-1H-1,3-benzodiazol-5-yl]piperidin-4-yl}oxy)cyclohexyl]methyl}piperazin-1-yl)methyl]-1-oxo-4-(trifluoromethyl)-2,3-dihydro-1H-isoindol-2-yl}phenyl)-3-[(4-methyl-4H-1,2,4-triazol-3-yl)methyl]cyclobutane-1-carbonitrile] the same measures were less than 5 nM and greater than 70%.
For `C[C@H]1CN(CC2CCC(OC3CCN(c4ccc5c(c4F)CN(C4CCC(=O)NC4=O)C5=O)CC3)CC2)[C@@H](C)CN1Cc1cc2c(c(C(F)(F)F)c1)CN(c1cccc(C3(Cc4nncn4C)COC3)c1)C2=O` (stereo partly drawn) [Example 242, 3-[4-fluoro-1-oxo-5-(4-{[(1rs,4rs)-4-{[(2S,5S)-2,5-dimethyl-4-{[2-(3-{3-[(4-methyl-4H-1,2,4-triazol-3-yl)methyl]oxetan-3-yl}phenyl)-3-oxo-7-(trifluoromethyl)-2,3-dihydro-1H-isoindol-5-yl]methyl}piperazin-1-yl]methyl}cyclohexyl]oxy}piperidin-1-yl)-2,3-dihydro-1H-isoindol-2-yl]piperidine-2,6-dione] the same measures were less than 5 nM and greater than 70%.
For `CC1c2nc(N3CCC(OC4CCC(CN5[C@H](C)CN(Cc6cc7c(c(C(F)(F)F)c6)CN(c6cccc(C8(Cc9nncn9C)COC8)c6)C7=O)C[C@@H]5C)CC4)CC3)ccc2C(=O)N1C1CCC(=O)NC1=O` (stereo partly drawn) [Example 243, 3-[7-methyl-5-oxo-2-(4-{[(1rs,4rs)-4-{[(2R,6S)-2,6-dimethyl-4-{[2-(3-{3-[(4-methyl-4H-1,2,4-triazol-3-yl)methyl]oxetan-3-yl}phenyl)-3-oxo-7-(trifluoromethyl)-2,3-dihydro-1H-isoindol-5-yl]methyl}piperazin-1-yl]methyl}cyclohexyl]oxy}piperidin-1-yl)-5H,6H,7H-pyrrolo[3,4-b]pyridin-6-yl]piperidine-2,6-dione] the same measures were less than 5 nM and greater than 70%.
In the case of `C[C@@H]1CN(Cc2cc3c(c(C(F)(F)F)c2)CN(c2cccc(C4(Cc5nncn5C)COC4)c2)C3=O)CCN1C[C@H]1CC[C@H](OC2CCN(c3ccc4c(c3F)CN(C3CCC(=O)NC3=O)C4=O)CC2)CC1` (stereo partly drawn) [Example 244, 3-[4-fluoro-1-oxo-5-(4-{[(1r*,4r*)-4-{[(2R)-2-methyl-4-{[2-(3-{3-[(4-methyl-4H-1,2,4-triazol-3-yl)methyl]oxetan-3-yl}phenyl)-3-oxo-7-(trifluoromethyl)-2,3-dihydro-1H-isoindol-5-yl]methyl}piperazin-1-yl]methyl}cyclohexyl]oxy}piperidin-1-yl)-2,3-dihydro-1H-isoindol-2-yl]piperidine-2,6-dione], the DC50 is less than 5 nM and the greatest degradation seen (Dmax) was greater than 70%.
For `CC1CN(C[C@H]2CC[C@H](OC3CCN(c4ccc5c(c4)n(C(C)C)c(=O)n5C4CCC(=O)NC4=O)CC3)CC2)CCN1Cc1cc2c(c(C(F)(F)F)c1)CN(c1cccc(C3(Cc4nncn4C)CC(C#N)C3)c1)C2=O` (stereo partly drawn) [Example 245, (1r**,3r**)-3-(3-{6-[(2-methyl-4-{[(1r*,4r*)-4-({1-[1-(2,6-dioxopiperidin-3-yl)-2-oxo-3-(propan-2-yl)-2,3-dihydro-1H-1,3-benzodiazol-5-yl]piperidin-4-yl}oxy)cyclohexyl]methyl}piperazin-1-yl)methyl]-1-oxo-4-(trifluoromethyl)-2,3-dihydro-1H-isoindol-2-yl}phenyl)-3-[(4-methyl-4H-1,2,4-triazol-3-yl)methyl]cyclobutane-1-carbonitrile], the DC50 is less than 5 nM and the Dmax is greater than 70%.
As to `CC1c2nc(N3CCC(O[C@H]4CC[C@@H](CN5[C@@H](C)CN(Cc6cc7c(c(C(F)(F)F)c6)CN(c6cccc(C8(Cc9nncn9C)COC8)c6)C7=O)C[C@@H]5C)CC4)CC3)ccc2C(=O)N1C1CCC(=O)NC1=O` (stereo partly drawn) [Example 249, 3-[7-methyl-5-oxo-2-(4-{[(1r*,4r*)-4-{[(2S,6S)-2,6-dimethyl-4-{[2-(3-{3-[(4-methyl-4H-1,2,4-triazol-3-yl)methyl]oxetan-3-yl}phenyl)-3-oxo-7-(trifluoromethyl)-2,3-dihydro-1H-isoindol-5-yl]methyl}piperazin-1-yl]methyl}cyclohexyl]oxy}piperidin-1-yl)-5H,6H,7H-pyrrolo[3,4-b]pyridin-6-yl]piperidine-2,6-dione], the DC50 is less than 5 nM and the Dmax was greater than 70%.
Turning to `CC1c2nc(N3CCC(O[C@H]4CC[C@H](CN5[C@H](C)CN(Cc6cc7c(c(C(F)(F)F)c6)CN(c6cccc(C8(Cc9nncn9C)COC8)c6)C7=O)C[C@H]5C)CC4)CC3)ccc2C(=O)N1C1CCC(=O)NC1=O` (stereo partly drawn) [Example 250, 3-[7-methyl-5-oxo-2-(4-{[(1r*,4r*)-4-{[(2R,6R)-2,6-dimethyl-4-{[2-(3-{3-[(4-methyl-4H-1,2,4-triazol-3-yl)methyl]oxetan-3-yl}phenyl)-3-oxo-7-(trifluoromethyl)-2,3-dihydro-1H-isoindol-5-yl]methyl}piperazin-1-yl]methyl}cyclohexyl]oxy}piperidin-1-yl)-5H,6H,7H-pyrrolo[3,4-b]pyridin-6-yl]piperidine-2,6-dione], the DC50 is less than 5 nM and the Dmax was 35 to 70%.

The record behind these values is patent publication US20260184710A1, “CASITAS B-LINEAGE LYMPHOMA PROTOONCOGENE B (CBL-B) DEGRADING COMPOUNDS AND ASSOCIATED METHODS OF USE” (Arvinas Operations, Inc., priority 2022, published 2026).
